According to PMC5074515 (PLoS ONE, 2016):
In brackets after ≈: the same amount, converted by molar mass. Counter-ions that a name gives are not always drawn. Like-named read-outs stand apart in the source and are kept apart here.

What was measured:
[1] = tested on: Mtb H37Ra (ATCC 25177); assay: In vitro screen versus Mtb H37Ra (Alamar blue microdilution broth assay, MIC99); type: cell-based, M. tuberculosis; settings: Mycobacterium tuberculosis
Protocol: The initial screening set and selected other compounds were tested for their inhibitory activity against Mtb H37Ra (ATCC 25177) and MAC NJ211 strains. Screening was performed at 1.28 and 12.8 μg/mL in Middlebrook 7H9 broth supplemented with 0.2% glycerol and ADC enrichment using a colorimetric (Alamar blue) microdilution broth assay by reported methods.[15]

[2] = tested on: MAC NJ211; assay: In vitro screen versus MAC NJ211 (Alamar blue microdilution broth assay, MIC99); type: cell-based; settings: read-out: MAC NJ211 MIC99
[3] = tested on: Mtb H37Rv; assay: In vitro qHTS assay against Mtb H37Rv (IC90); type: cell-based, M. tuberculosis; settings: for IC90: read-out: Mtb H37Rv IC90
[4] = molecular target: Mtb FtsZ (Mycobacterium tuberculosis, UniProt P9WN95); assay: biochemical; type: biochemical
Mtb FtsZ, sequence (P9WN95 whole entry): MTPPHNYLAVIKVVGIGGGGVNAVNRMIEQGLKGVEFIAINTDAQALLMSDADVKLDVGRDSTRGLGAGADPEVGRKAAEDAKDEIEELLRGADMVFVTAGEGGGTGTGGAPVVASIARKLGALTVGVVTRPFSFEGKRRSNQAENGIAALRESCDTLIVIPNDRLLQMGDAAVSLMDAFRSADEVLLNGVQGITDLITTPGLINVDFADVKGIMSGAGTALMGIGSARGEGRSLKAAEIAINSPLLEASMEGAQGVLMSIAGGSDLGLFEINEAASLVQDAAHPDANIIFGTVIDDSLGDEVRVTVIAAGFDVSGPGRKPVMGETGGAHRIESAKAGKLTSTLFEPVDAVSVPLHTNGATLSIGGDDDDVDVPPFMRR

[5] = tested on: tubulin; assay: Tubulin polymerization assay; type: biochemical, human; settings: mean ± standard deviation, at least three times per assay; NA = not active up to 100 μM
[6] = lowest drug concentration that completely inhibited growth, read-out: Mtb H37Ra MIC99
[7] = lowest drug concentration that completely inhibited growth
[8] = Mycobacterium tuberculosis, H37RV, concentration that inhibits bacterial growth by 90%
[9] = mean ± standard deviation, at least three times per assay, NA = not active up to 100 μM, read-out: Mtb FtsZ Polymerization IC50
[10] = concentration that inhibits bacterial growth by 90%
[11] = same MIC99 given in μM, read-out: Mtb H37Ra MIC99 (concentration in μM in parentheses)

## CSc1ccc(/C=C2/C(C)=C(CCNCc3ccccc3)c3cc(F)ccc32)cc1 [Compound 58]
[1]; [6]
  MIC99: 2 µg/mL
[2]; [7]
  MIC99: 4 µg/mL (≈ 9.63 µM)
[3]; [8]
  IC90: 2.07 ± 0.01 µM

## CCN(CC)CCNc1nc(/C=C/c2ccc(Cl)cc2)nc2cc3ccccc3cc12 [Compound 16, Zantrin Z3]
[1]; [6]
  MIC99: 1 µg/mL
[2]; [7]
  MIC99: 2 µg/mL (≈ 4.64 µM)

## COc1cc2c(c(OC)c1OC)-c1ccc(OC)c(=O)cc1[C@@H](NC(C)=O)CC2 [Compound 1, Colchicine]
[1]; read-out: Mtb H37Ra MIC99
  MIC99: > 64 µg/mL
[2]; [7]
  MIC99: > 64 µg/mL

## CSc1ccc(/C=C2/C(C)=C(CC(=O)NCc3ccc(N(C)C)cc3)c3cc(F)ccc32)cc1 [Compound 35, (Z)-N-(4-(Dimethylamino)benzyl)-2-(5-fluoro-2-methyl-1-(4-(methylthio)benzylidene)-1H-inden-3-yl)acetamide]
[4]; [9]
  IC50: 22.9 ± 4.8 µM
[1]; [6]
  MIC99: 64 µg/mL
[3]; Mycobacterium tuberculosis, H37RV, at 50 μM
  inhibition at 50 µM: 82%
[3]; [8]
  IC90: > 100 µM
[3]; [10]
  Mtb H37Rv IC90: inactive
other
  melting point: 174 to 177 °C

## CC[C@@H](CO)NCCN[C@@H](CC)CO [Ethambutol]
[1]; [6]
  MIC99: 2 to 4 µg/mL
[2]; [7]
  MIC99: 4 to 8 µg/mL (≈ 19.6 to 39.2 µM)

## CSc1ccc(/C=C2\C(C)=C(CC(=O)NCCN(C)C)c3cc(F)ccc32)cc1 [Compound 61, (E)-N-(2-(Dimethylamino)ethyl)-2-(5-fluoro-2-methyl-1-(4-(methylthio)benzylidene)-1H-inden-3-yl)acetamide]
[4]; [9]
  IC50: 44.6 ± 6.3 µM
[1]; [6]
  MIC99: 16 µg/mL
[2]; [7]
  MIC99: 16 µg/mL (≈ 39 µM)
[3]; [8]
  IC90: 7.7 ± 0.33 µM

## CSc1ccc(/C=C2/C(C)=C(CCNCc3ccco3)c3cc(F)ccc32)cc1 [Compound 59, (Z)-2-(5-Fluoro-2-methyl-1-(4-(methylthio)benzylidene)-1H-inden-3-yl)-N-(furan-2-ylmethyl)ethanamine]
[1]; [6]
  MIC99: 4 µg/mL
[2]; [7]
  MIC99: 8 µg/mL (≈ 19.7 µM)
[3]; [8]
  IC90: 1.69 ± 0.06 µM

## CSc1ccc(/C=C2/C(C)=C(CC(=O)N(C)CCN(C)C)c3cc(F)ccc32)cc1 [Compound 19, (Z)-N-(2-(Dimethylamino)ethyl)-2-(5-fluoro-2-methyl-1-(4-(methylthio)benzylidene)-1H-inden-3-yl)-N-methylacetamide]
[4]; [9]
  IC50: 42.3 ± 6 µM
[1]; [6]
  MIC99: 16 µg/mL
[3]; [8]
  IC90: 6.67 ± 0.14 µM

## CN(C)[C@@H]1C(O)=C(C(N)=O)C(=O)[C@@]2(O)C(O)=C3C(=O)c4c(O)cccc4[C@@](C)(O)[C@H]3C[C@@H]12 [Compound 5, Tetracycline]
[4]
  IC50: 87.1 ± 10.7 µM
[1]; [6]
  MIC99: 1 µg/mL

## Nc1nonc1C(=O)N/N=C/c1cc(Cl)cc(Cl)c1O [Compound 12, ChemBridge 5481893]
[4]; [9]
  IC50: 33.4 ± 3 µM
[1]; [6]
  MIC99: 64 µg/mL
[1]; [11]
  MIC99: 202 µM
[2]; [7]
  MIC99: > 64 µg/mL

## C=CCOc1c(Br)cc(S(=O)(=O)c2cc(Br)c(O)c(Br)c2)cc1Br [Compound 7, Zantrin Z4]
[5]
  IC50: 77 ± 3 µM
[1]; [6]
  MIC99: 64 µg/mL
[2]
  MIC99: > 64 µg/mL

## CC/C(=C(\c1ccccc1)c1ccc(OCCN(C)C)cc1)c1ccccc1 [Compound 11, Tamoxifen citrate]
[2]; [7]
  MIC99: 32 µg/mL

## O=c1c(O)c(-c2ccc(O)c(O)c2)oc2cc(O)cc(O)c12 [Compound 3, Quercetin dihydrate]
[4]
  IC50: 21.7 ± 4.8 µM
[1]; [6]
  MIC99: > 128 µg/mL
[2]
  MIC99: > 128 µg/mL

## CCN(CC)CCNC(=O)CC1=C(C)/C(=C/c2ccc(SC)cc2)c2ccc(F)cc21 [Compound 20, (Z)-N-(2-(Diethylamino)ethyl)-2-(5-fluoro-2-methyl-1-(4-(methylthio)benzylidene)-1H-inden-3-yl)acetamide]
[3]; [8]
  IC90: 3.59 ± 0.06 µM
other
  melting point: 98 to 100 °C

## CC(C)c1c(O)ccc2c1CC[C@H]1C(C)(C)CCC[C@]21C [Compound 13, Totarol]
[4]; [9]
  IC50: 47.5 ± 4.9 µM
[1]; [6]
  MIC99: 25 µg/mL
[1]; [11]
  MIC99: 87.3 µM
[2]; [7]
  MIC99: 25 µg/mL (≈ 87.3 µM)

## CN(C)c1ccc(O)c2c1C[C@H]1C[C@H]3[C@H](N(C)C)C(O)=C(C(N)=O)C(=O)[C@@]3(O)C(O)=C1C2=O [Compound 6, Minocycline]
[4]
  IC50: 37.3 ± 4.6 µM
[1]; [6]
  MIC99: ≤ 0.5 µg/mL

## CSc1ccc(/C=C2/C(C)=C(CC(=O)N3CCN(c4ccncc4)CC3)c3cc(F)ccc32)cc1 [Compound 32, (Z)-2-(5-Fluoro-2-methyl-1-(4-(methylthio)benzylidene)-1H-inden-3-yl)-1-(4-(pyridin-4-yl)piperazin-1-yl)ethanone]
[3]; [8]
  IC90: 3.07 ± 0.04 µM
other
  melting point: 171 to 174 °C

## Oc1ccc(Cl)cc1Cc1cc(Cl)cc(Cc2cc(Cl)ccc2O)c1O [Compound 17, Zantrin Z1]
[1]; [6]
  MIC99: 8 µg/mL
[2]; [7]
  MIC99: 16 µg/mL (≈ 39.1 µM)

## O=c1c(O)c(-c2cc(O)c(O)c(O)c2)oc2cc(O)cc(O)c12 [Compound 4, Myrcetin]
[4]
  IC50: 42.4 ± 6.3 µM
[1]; [6]
  MIC99: > 128 µg/mL
[2]
  MIC99: > 128 µg/mL

## COc1cc(/C=C(\C#N)C(N)=O)cc(CSc2nc3ccccc3s2)c1O [Compound 15, AG-825]
[4]; [9]
  IC50: 31.7 ± 1.7 µM

## COc1cc2c(cc1O)CC[n+]1cc3cc(OC)c(OC)cc3cc1-2 [Compound 9, Pseudojatrorrhizine]
[4]; [9]
  IC50: 105 ± 32 µM
[1]; [6]
  MIC99: > 64 µg/mL
[2]; [7]
  MIC99: 64 µg/mL

## CNCCN(C)C(=O)CC1=C(C)/C(=C/c2ccc(SC)cc2)c2ccc(F)cc21 [Compound 23, (Z)-2-(5-Fluoro-2-methyl-1-(4-(methylthio)benzylidene)-1H-inden-3-yl)-N-methyl-N-(2-(methylamino)ethyl)acetamide]
[4]; [9]
  IC50: 34.9 ± 7 µM
[1]; [6]
  MIC99: 8 µg/mL
[3]; [8]
  IC90: 8.28 ± 0.33 µM

## CSc1ccc(/C=C2/C(C)=C(CC(=O)N(C)CCN(C)C(=O)C(N)C(C)C)c3cc(F)ccc32)cc1 (stereo not drawn) [Compound 56, (Z)-2-Amino-N-(2-(2-(5-fluoro-2-methyl-1-(4-(methylthio)benzylidene)-1H-inden-3-yl)-N-methylacetamido)ethyl)-N,3-dimethylbutanamide]
[4]; [9]
  IC50: 38 ± 6.3 µM
[1]; [6]
  MIC99: 8 µg/mL
[3]; [8]
  IC90: 4.34 ± 0.06 µM

## C[n+]1cc2c3c(ccc2c2ccc4cc5c(cc4c21)OCO5)OCO3 [Compound 10, Sanguinarine Cl‾ • H2O]
[4]
  IC50: 23 ± 4 µM
[5]
  IC50: 30 ± 7 µM
[1]; [6]
  MIC99: 64 µg/mL
[1]; [11]
  MIC99: 193 µM
[2]; [7]
  MIC99: > 64 µg/mL

## O=C(O)c1cc(O)c2c(c1)C(=O)c1cccc(O)c1C2=O [Compound 2, Rhein]
[4]
  IC50: 44.6 ± 6.3 µM
[1]; [6]
  MIC99: 32 µg/mL
[1]; [11]
  MIC99: 113 µM
[2]; [7]
  MIC99: > 128 µg/mL

## CSc1ccc(/C=C2/C(C)=C(CC(=O)NCc3ccco3)c3cc(F)ccc32)cc1 [Compound 36, (Z)-2-(5-Fluoro-2-methyl-1-(4-(methylthio)benzylidene)-1H-inden-3-yl)-N-(furan-2-ylmethyl)acetamide]
[3]; [8]
  IC90: > 100 µM
[3]; [10]
  Mtb H37Rv IC90: inactive
other
  melting point: 166 to 168 °C

## CSc1ccc(/C=C2/C(C)=C(C(C)C(=O)N3CCC(N4CCCCC4)CC3)c3cc(F)ccc32)cc1 (stereo not drawn) [Compound 53, (Z)-1-([1,4'-Bipiperidin]-1'-yl)-2-(5-fluoro-2-methyl-1-(4-(methylthio)benzylidene)-1H-inden-3-yl)propan-1-one]
[3]; [8]
  IC90: 2.84 ± 0.06 µM
other
  melting point: 80 to 82 °C

## CSc1ccc(/C=C2/C(C)=C(CC(=O)NCCN3CCCCC3)c3cc(F)ccc32)cc1 [Compound 24, (Z)-2-(5-Fluoro-2-methyl-1-(4-(methylthio)benzylidene)-1H-inden-3-yl)-N-(2-(piperidin-1-yl)ethyl)acetamide]
[4]; [9]
  IC50: 26.5 ± 4.8 µM
[5]
  IC50: > 100 µM
[3]; [8]
  IC90: 1.41 ± 0.03 µM
other
  melting point: 130 to 133 °C

## CSc1ccc(/C=C2/C(C)=C(CC(=O)N3CCC(N4CCCCC4)CC3)c3cc(F)ccc32)cc1 [Compound 30, (Z)-1-([1,4'-Bipiperidin]-1'-yl)-2-(5-fluoro-2-methyl-1-(4-(methylthio)benzylidene)-1H-inden-3-yl)ethanone]
[3]; [8]
  IC90: 2.75 ± 0.02 µM
other
  melting point: 145 to 148 °C

## CSc1ccc(/C=C2/C(C)=C(CC(=O)NCCN3CCCC3)c3cc(F)ccc32)cc1 [Compound 26, (Z)-2-(5-Fluoro-2-methyl-1-(4-(methylthio)benzylidene)-1H-inden-3-yl)-N-(2-(pyrrolidin-1-yl)ethyl)acetamide]
[4]; [9]
  IC50: 33.5 ± 5.9 µM
[1]; [6]
  MIC99: 8 µg/mL
[3]; [8]
  IC90: 3.04 ± 0.04 µM
other
  melting point: 106 to 108 °C

## CCCCN(CCCC)CCCNC(=O)C(C)C1=C(C)/C(=C/c2ccc(SC)cc2)c2ccc(F)cc21 (stereo not drawn) [Compound 47, (Z)-N-(3-(Dibutylamino)propyl)-2-(5-fluoro-2-methyl-1-(4-(methylthio)benzylidene)-1H-inden-3-yl)propanamide]
[3]; [8]
  IC90: 1.22 ± 0.04 µM
other
  melting point: 121 to 124 °C

## CSc1ccc(/C=C2/C(C)=C(CCNCCN3CCCCC3)c3cc(F)ccc32)cc1 [Compound 60, (Z)-2-(5-Fluoro-2-methyl-1-(4-(methylthio)benzylidene)-1H-inden-3-yl)-N-(2-(piperidin-1-yl)ethyl)ethanamine]
[1]; [6]
  MIC99: 2 µg/mL
[2]
  MIC99: 8 µg/mL (≈ 18.3 µM)
[3]; 48 vs 23, 57 vs 56, 60 vs 24
  fold more active against Mtb H37Rv than corresponding analog: 1.6 fold
[3]; Mycobacterium tuberculosis, H37RV
  IC90: 0.88 ± 0.01 µM
